Target: T1, GCS (Canis lupus familiaris, UniProt A0A8I3MXG6)
T1 construct: endogenous in cells; host or cells: MDCK (Madin-Darby canine kidney) cells, whole-cell lysate
T1 sequence (A0A8I3MXG6 1-394): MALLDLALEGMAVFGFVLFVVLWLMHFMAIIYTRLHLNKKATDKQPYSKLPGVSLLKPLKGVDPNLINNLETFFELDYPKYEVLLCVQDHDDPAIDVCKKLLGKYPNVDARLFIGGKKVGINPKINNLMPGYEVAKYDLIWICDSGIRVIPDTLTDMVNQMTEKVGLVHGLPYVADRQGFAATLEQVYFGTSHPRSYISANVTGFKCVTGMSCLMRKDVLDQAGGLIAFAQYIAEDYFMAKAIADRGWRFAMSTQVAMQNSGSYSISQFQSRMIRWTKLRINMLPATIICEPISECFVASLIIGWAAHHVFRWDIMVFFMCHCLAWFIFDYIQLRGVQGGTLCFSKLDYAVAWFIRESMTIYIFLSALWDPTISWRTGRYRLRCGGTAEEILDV
Test: GCS enzymatic assay (MDCK cell lysate, NBD-ceramide to glucosylceramide, LC/MS)
Format: biochemical, canine
Conditions: Table 2; class symbols A, B, C; the table does not say which of the assays; read-out: Data Range (IC50 values)
Experimental: This assay was modified based on the study by Larsen et al. (J. Lipid Res. 2011, 53, 282). Madin-Darby canine kidney (MDCK) cell lysate was prepared using M-PER Mammalian Protein Extraction Reagent (Thermal Scientific) in the presence of a protease inhibitor cocktail (Roche). Protein concentration was determined using BCA assay kit (Pierce). […] 0.1% DMSO was used as mock treatment or control. The reaction was terminated by adding 100 μL acetonitrile solution and subjected to LC/MS analysis.
The quantitative analysis of NBD-Ceramide and glucosylceramide was performed on a Shimadzu ultra-fast liquid chromatography (Shimadzu, Japan) coupled with API 4000 triple quadrupole mass spectrometer (Applied Biosystems, Concord, Ontario, Canada). Sample separation was conducted on a Waters Xbridge™ BEH130 C18, 100 mm×4.6 mm i.d, 3.5 μm (Milford, Mass., USA). The mobile phase consisted of water and acetonitrile supplemented with 0.1% formic acid (v/v). The flow rate was 1.0 mL/min. The initial mobile phase was 20% acetonitrile and was ramped in a linear fashion to 50% acetonitrile in 0.4 min. From 0.4 to 1.5 min, the gradient was ramped to 98% acetonitrile, and then was held at […] until 8.0 min. Acetonitrile was reset to 20% in 1.5 min, and maintained until 10.0 min. The total run time was 10.0 min. The MS/MS detection was performed in ESI positive mode. The mass transition of NBD-Ceramide was m/z 576.36→558.40 under the collision energy of 15 V, and the mass transition of glucosylceramide was m/z 738.35→558.40 under 21V collision energy. The cell lysate was diluted with equal volume of acetonitrile. Aliquots of 50 μL diluted samples were added to 1.5 mL tubes, and 100 μL of acetonitrile containing internal standard (100 ng/mL tolbutamide) were added for protein precipitation. The mixture were vortexed and then centrifuged at 13000 rpm for 10 min. 70 μL of supernatant were mixed with 140 μL of H2O and the final solution were injected for LC/MS/MS analysis and IC50's and/or percent inhibitions calculated.

Row | SMILES | IC50 [nM]
1 | O=C(N[C@H](CN1CCC1)[C@H](O)c1cc(F)c2c(c1)OCCO2)[C@@H]1CCN(c2ccc(Cl)cc2)C1 [Compound 25, (R)-N-((1R,2R)-3-(azetidin-1-yl)-1-(8-fluoro-2,3-dihydrobenzo[b][1,4]dioxin-6-yl)-1-hydroxypropan-2-yl)-1-(4-chlorophenyl)pyrrolidine-3-carboxamide] | 1 to 30
2 | Cn1ncc2ccc(N3CC[C@H](C(=O)N[C@H](CN4CCCC4)[C@H](O)c4ccc5c(c4)OCCO5)C3)cc21 [Compound 61D, (S)-N-((1R,2R)-1-(2,3-dihydrobenzo[b][1,4]dioxin-6-yl)-1-hydroxy-3-(pyrrolidin-1-yl)propan-2-yl)-1-(1-methyl-1H-indazol-6-yl)pyrrolidine-3-carboxamide] | 1 to 30
3 | O=C(N[C@H](CN1CCCC1)[C@H](O)c1cc(F)c2c(c1)OCCO2)[C@@H]1CCN(c2ccc(F)cc2)C1 [Compound 35, (R)-N-((1R,2R)-1-(8-fluoro-2,3-dihydrobenzo[b][1,4]dioxin-6-yl)-1-hydroxy-3-(pyrrolidin-1-yl)propan-2-yl)-1-(4-fluorophenyl)pyrrolidine-3-carboxamide] | 1 to 30
4 | O=C(N[C@H](CN1CCCC1)[C@H](O)c1cc(F)c2c(c1)OCCO2)[C@@H]1CCN(c2ccc3ccccc3c2)C1 [Compound 81, (R)-N-((1R,2R)-1-(8-fluoro-2,3-dihydrobenzo[b][1,4]dioxin-6-yl)-1-hydroxy-3-(pyrrolidin-1-yl)propan-2-yl)-1-(naphthalen-2-yl)pyrrolidine-3-carboxamide] | 1 to 30
5 | O=C(N[C@H](CN1CCCC1)[C@H](O)c1cc(F)c2c(c1)OCCO2)[C@@H]1CCN(c2ccc3ccsc3c2)C1 [Compound 97, (R)-1-(benzo[b]thiophen-6-yl)-N-((1R,2R)-1-(8-fluoro-2,3-dihydrobenzo[b][1,4]dioxin-6-yl)-1-hydroxy-3-(pyrrolidin-1-yl)propan-2-yl)pyrrolidine-3-carboxamide] | 1 to 30
6 | O=C(N[C@H](CN1CCCC1)[C@H](O)c1ccc2c(c1)OCCO2)C1CCN(c2ccc3cc(F)ccc3c2)C1 (stereo in doubt) [Compound 14, (S)-N-((1R,2R)-1-(2,3-dihydrobenzo[b][1,4]dioxin-6-yl)-1-hydroxy-3-(pyrrolidin-1-yl)propan-2-yl)-1-(6-fluoronaphthalen-2-yl)pyrrolidine-3-carboxamide] | 1 to 30
7 | O=C(N[C@H](CN1CCCC1)[C@H](O)c1ccc2c(c1)OC=CO2)[C@@H]1CCN(c2ccc(Cl)cc2)C1 [Compound 143, (R)-N-((1R,2R)-1-(benzo[b][1,4]dioxin-6-yl)-1-hydroxy-3-(pyrrolidin-1-yl)propan-2-yl)-1-(4-chlorophenyl)pyrrolidine-3-carboxamide] | 1 to 30
8 | O=C(N[C@H](CN1CCCC1)[C@H](O)c1cc(F)c2c(c1)OCCO2)[C@@H]1CCN(c2ccccn2)C1 [Compound 48, (R)-N-((1R,2R)-1-(8-fluoro-2,3-dihydrobenzo[b][1,4]dioxin-6-yl)-1-hydroxy-3-(pyrrolidin-1-yl)propan-2-yl)-1-(pyridin-2-yl)pyrrolidine-3-carboxamide] | 1 to 30
9 | O=C(N[C@H](CN1CCCC1)[C@H](O)c1cc(F)c2c(c1)OCCO2)[C@@H]1CCN(c2ccc(Cl)c(Oc3ccccn3)c2)C1 [Compound 105, (R)-1-(4-chloro-3-(pyridin-2-yloxy)phenyl)-N-((1R,2R)-1-(8-fluoro-2,3-dihydrobenzo[b][1,4]dioxin-6-yl)-1-hydroxy-3-(pyrrolidin-1-yl)propan-2-yl)pyrrolidine-3-carboxamide] | 1 to 30
10 | CC(C)Oc1ccc([C@@H](O)[C@@H](CN2CCCC2)NC(=O)[C@@H]2CCN(c3ccc(F)cc3)C2)cn1 [Compound 31, (R)-1-(4-fluorophenyl)-N-((1R,2R)-1-hydroxy-1-(6-isopropoxypyridin-3-yl)-3-(pyrrolidin-1-yl)propan-2-yl)pyrrolidine-3-carboxamide] | 100 to 1000
11 | O=C(N[C@H](CN1CCCC1)[C@H](O)c1ccc2c(c1)OCCO2)[C@H]1CCN(c2ccc3c(c2)CCCC3)C1 [Compound 80H, (S)-N-((1R,2R)-1-(2,3-dihydrobenzo[b][1,4]dioxin-6-yl)-1-hydroxy-3-(pyrrolidin-1-yl)propan-2-yl)-1-(5,6,7,8-tetrahydronaphthalen-2-yl)pyrrolidine-3-carboxamide] | 1 to 30

Same assay, conditions: Table 2; class symbols D, E, F, NA (not active); the table does not say which of the assays

Row | SMILES | Data Range (% inhibition)
12 | O=C(N[C@H](CN1CCCCC1)[C@H](O)c1ccc2c(c1)OCCO2)C1CCN(c2ccc(F)cc2)C1 (stereo partly drawn) [Compound 46A, N-((1R,2R)-1-(2,3-dihydrobenzo[b][1,4]dioxin-6-yl)-1-hydroxy-3-(piperidin-1-yl)propan-2-yl)-1-(4-fluorophenyl)pyrrolidine-3-carboxamide] | F (1-49% (or less than 50%))
13 | O=C(N[C@H](CN1CCCC1)[C@H](O)c1cc(F)c2c(c1)OCCO2)[C@H]1CCN(c2ccc(Cl)cc2)C1 [Compound 2B, (S)-1-(4-chlorophenyl)-N-((1R,2R)-1-(8-fluoro-2,3-dihydrobenzo[b][1,4]dioxin-6-yl)-1-hydroxy-3-(pyrrolidin-1-yl)propan-2-yl)pyrrolidine-3-carboxamide] | F (1-49% (or less than 50%))
14 | O=C(N[C@H](CN1CCCC1)[C@H](O)c1ccc(OC2CC2)c(Cl)c1)C1CCN(c2ccc(C(F)(F)F)cc2)C1 (stereo partly drawn) [Compound 6, N-((1R,2R)-1-(3-chloro-4-cyclopropoxyphenyl)-1-hydroxy-3-(pyrrolidin-1-yl)propan-2-yl)-1-(4-(trifluoromethyl)phenyl)pyrrolidine-3-carboxamide] | F (1-49% (or less than 50%))
15 | O=C(N[C@H](CN1CCC1)[C@H](O)c1cc(F)c2c(c1)OCCO2)[C@H]1CCN(c2ccc3cc(Cl)ccc3c2)C1 [Compound 89G, (S)-N-((1R,2R)-3-(azetidin-1-yl)-1-(8-fluoro-2,3-dihydrobenzo[b][1,4]dioxin-6-yl)-1-hydroxypropan-2-yl)-1-(6-chloronaphthalen-2-yl)pyrrolidine-3-carboxamide] | E (50-74% (or less than 75%))
16 | O=C(N[C@H](CN1CCCC1)[C@H](O)c1ccc2c(c1)OCCO2)[C@H]1CCN(c2ccccn2)C1 [Compound 22D, (S)-N-((1R,2R)-1-(2,3-dihydrobenzo[b][1,4]dioxin-6-yl)-1-hydroxy-3-(pyrrolidin-l-yl)propan-2-yl)-1-(pyridin-2-yl)pyrrolidine-3-carboxamide] | F (1-49% (or less than 50%))
17 | O=C(N[C@H](CN1CCCC1)[C@H](O)c1ccc(OCC(F)(F)F)nc1)[C@H]1CCN(c2ccc(Cl)cc2)C1 [Compound 33A, (S)-1-(4-chlorophenyl)-N-((1R,2R)-1-hydroxy-3-(pyrrolidin-1-yl)-1-(6-(2,2,2-trifluoroethoxy)pyridin-3-yl)propan-2-yl)pyrrolidine-3-carboxamide] | NA (not active—a negative value was generated for % inhibition)
18 | O=C(N[C@H](CN1CCCCC1)[C@H](O)c1ccc2c(c1)OCCO2)[C@H]1CCN(c2ccc(F)cc2)C1 [Compound 46B, (S)-N-((1R,2R)-1-(2,3-dihydrobenzo[b][1,4]dioxin-6-yl)-1-hydroxy-3-(piperidin-1-yl)propan-2-yl)-1-(4-fluorophenyl)pyrrolidine-3-carboxamide] | NA (not active—a negative value was generated for % inhibition)
19 | O=C(N[C@H](CN1CCCC1)[C@H](O)c1ccc(OC2CCOCC2)c(Cl)c1)[C@H]1CCN(c2ccc(Cl)cc2)C1 [Compound 45A, (S)-N-((1R,2R)-1-(3-chloro-4-((tetrahydro-2H-pyran-4-yl)oxy)phenyl)-1-hydroxy-3-(pyrrolidin-1-yl)propan-2-yl)-1-(4-chlorophenyl)pyrrolidine-3-carboxamide] | F (1-49% (or less than 50%))
20 | O=C(N[C@H](CN1CCCC1)[C@H](O)c1ccc2c(c1)OCCO2)[C@H]1CCN(c2ccc3cc(Cl)ccc3n2)C1 [Compound 99D, (S)-1-(6-chloroquinolin-2-yl)-N-((1R,2R)-1-(2,3-dihydrobenzo[b][1,4]dioxin-6-yl)-1-hydroxy-3-(pyrrolidin-1-yl)propan-2-yl)pyrrolidine-3-carboxamide] | F (1-49% (or less than 50%))
